Marks after values point to notes of the source that are not given here.

On the set-up of data set [1]: method as in Konsoula and Jung, 2008. Conditions: reported data of vorinostat; ref Konsoula and Jung, 2008; cited from earlier work.
Data set [2] relates to acetyl-histone H4 and acetyl-α-tubulin in MDA-MB-231 cells. Briefly: Western blot analysis of intracellular HDAC inhibition. The following applies: for level of acetyl-histone H4 / level of acetyl-α-tubulin: 3 h, immunoblot. Format: cell-based, human. On the procedure:
The MDA-MB-231 cells were treated with compounds or DMSO for a specified period of time. Then the cells were washed twice with cold phosphate-buffered saline (PBS) and lysed in ice-cold radioimmunoprecipitation assay (RIPA) buffer. Lysates were cleared by centrifugation. Protein concentrations were determined using the bicinchoninic acid assay. Equal amounts of cell extracts were then resolved by sodium dodecyl sulfate–polyacrylamide gel electrophoresis, transferred to nitrocellulose membranes, and probed with acetyl-histone H4 antibody (intracellular substrate of HDAC1 and HDAC2), acetyl-α-tubulin antibody (intracellular substrate of HDAC6), and β-actin antibody (used as a loading control), respectively. Blots were detected using an enhanced chemiluminescence system.

In a further data set the test system is HEL. Briefly: In vitro antiproliferative assay (MTT), HEL. Type of data set: cell-based. The following applies: Homo sapiens, 72 h. How it is done: (§1) The cell proliferation assay was determined by the MTT (3-[4,5-dimethyl-2-thiazolyl]-2,5-diphenyl-2H-tetrazolium bromide) method. Briefly, cells were passaged the day before dosing into a 96-well plate, allowed to grow for 12 h, and then treated with different concentrations of compound for 72 h. A 0.5% MTT solution was added to each well. After incubation for another 4 h, formazan formed from MTT was extracted by adding 200 μL of DMSO. Absorbance was then determined using a microplate reader at 570 nm.

A further data set addresses T1, HDAC8 (Homo sapiens, UniProt Q9BY41).
T1 sequence (Q9BY41 1-377): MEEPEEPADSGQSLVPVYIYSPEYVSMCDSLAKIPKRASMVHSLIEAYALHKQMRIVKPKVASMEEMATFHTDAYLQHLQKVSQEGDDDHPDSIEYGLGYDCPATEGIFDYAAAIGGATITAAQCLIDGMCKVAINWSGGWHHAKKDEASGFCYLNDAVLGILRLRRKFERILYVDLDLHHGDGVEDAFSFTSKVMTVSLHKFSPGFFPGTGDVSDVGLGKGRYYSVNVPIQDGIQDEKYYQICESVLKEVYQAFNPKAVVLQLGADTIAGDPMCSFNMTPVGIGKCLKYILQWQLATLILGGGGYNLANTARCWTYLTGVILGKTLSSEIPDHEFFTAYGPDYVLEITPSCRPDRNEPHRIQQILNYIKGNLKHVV
Briefly: In vitro HDAC inhibition fluorescent assay, HDAC8. Type of data set: biochemical. Conditions: Boc-Lys(trifluoroacetyl)-AMC substrate. On the procedure: (§2) An aliquot of 10 μL of enzyme solution (HeLa cell nuclear extract, HDAC2, HDAC6, or HDAC8) was mixed with different concentrations of test compound (50 μL). The mixture was incubated at 37°C for 5 min, followed by the addition of 40 μL of fluorogenic substrate tert-butyl (S)-(6-acetamido- 1-((4-methyl-2-oxo-2H-chromen-7-yl)amino)-1-oxohexan-2-yl) carbamate (Boc-Lys(acetyl)-AMC) for HeLa cell nuclear extracts, HDAC2, and HDAC6; tert-butyl (S)-(1-((4-methyl- 2-oxo-2H-chromen-7-yl)amino)-1-oxo-6-(2,2,2-trifluoroacetam ido)hexan-2-yl)carbamate (Boc-Lys(trifluoroacetyl)-AMC) for HDAC8). After incubation at 37°C for 30 min, the mixture was quenched by the addition of 100 μL of developer containing trypsin and trichostatin A. Following incubation at 37°C for 20 min, the fluorescence intensity was measured using a microplate reader at excitation and emission wavelengths of 390 and 460 nm, respectively. The inhibition ratios were calculated from the fluorescence intensity readout of tested wells relative to those of control wells, and the half maximal inhibitory concentration (IC50) values were calculated using the prism non-linear curve-fitting method.

In a further data set the test system is MDA-MB-231 xenograft. Type of data set: in vivo. The following applies: oral 30 mg/kg/day. How it is done:
Ten days after injection, tumors were palpable and mice were randomized into treatment and control groups (six mice per group). […] Subcutaneous tumors were measured with a vernier caliper every 3 days. Tumor volumes (V) were estimated using the equation (V = ab^2/2, where a and b are the longest and shortest diameter, respectively). The body weight of the mice was also monitored regularly. At the end of the experimental period, mice were sacrificed and the tumor tissues were dissected and weighed. Tumor growth inhibition (TGI) and the relative increment ratio (T/C) were calculated at the end of treatment to reveal the antitumor effects in tumor weight and tumor volume, respectively.
• TGI = (the mean tumor weight of control group – the mean tumor weight of treated group)/the mean tumor weight of control group. • T/C = the mean RTV of treated group (T)/the mean RTV of blank control group (C).
where the relative tumor volume (RTV) is Vt/V0 (Vt is the tumor volume measured at the end of treatment; V0 is the tumor volume measured at the beginning of the treatment).
All the obtained data were used to evaluate the antitumor potency and toxicity of compounds. Data were analyzed by Student’s one-tailed t-test.

Another data set addresses HDAC2 (Homo sapiens, UniProt Q92769). Briefly: In vitro HDAC inhibition fluorescent assay, HDAC2. Type of data set: biochemical. The following applies: Boc-Lys(acetyl)-AMC substrate. On the procedure: as §2
Data set [3] is described as follows: In vitro metabolic stability assay in human liver microsomes. Type of data set: in vitro ADME. Conditions: with NADPH, 37°C, LC-MS/MS, read-out: t1/2 Human liver microsomes. How it is done:
(§3) Human liver microsomes containing compound 1 were incubated with NADPH at 37°C. At the specific time points, samples were added to acetonitrile to terminate the reaction, then subjected to vortex mixing for 5 min and stored in a freezer at –80°C. Before analysis, the samples were centrifuged. The remainder of 1 in the supernatants was analyzed by LC-MS/MS. The t1/2(half–time) values were calculated using the equation t1/2 = −0.693/k, where k is the slope found in the linear fit of the natural logarithm of the fraction remaining of compound 1 versus incubation time.
Background: Microsomes from liver hold many membrane-bound enzymes, among them those of drug oxidation.

For another data set, the system named is MCF-7. Briefly: In vitro antiproliferative assay (MTT), MCF-7. Type of data set: cell-based. The following applies: Homo sapiens, MCF7, 72 h. How it is done: as §1
The subject of a further data set is PC-3. As to the kind of experiment: In vitro antiproliferative assay (MTT), PC-3. Format: cell-based. The following applies: Homo sapiens, 72 h. How it is done:
as §1

In the next data set the test system is MOLT-4. As to the kind of experiment: In vitro antiproliferative assay (MTT), MOLT-4. Conditions: Homo sapiens, 72 h. Format: cell-based. How it is done:
as §1

The subject of the next data set is SK-N-BE(2). Briefly: In vitro antiproliferative assay (MTT), SK-N-BE(2). Type of data set: cell-based. Conditions: Homo sapiens, SKNBE2, 72 h. How it is done: as §1
A further data set concerns KG-1. As to the kind of experiment: In vitro antiproliferative assay (MTT), KG-1. Type of data set: cell-based. The following applies: Homo sapiens, 72 h. On the procedure: as §1
In data set [4] the test system is HeLa cell nuclear extract. As to the kind of experiment: In vitro HDAC inhibition fluorescent assay, total HDAC. Format: biochemical. The following applies: Boc-Lys(acetyl)-AMC substrate. How it is done:
as §2

The nature of data set [5]: In vitro metabolic stability assay in human plasma. Format: in vitro ADME. The following applies: 37°C, LC-MS/MS, read-out: t1/2 Human plasma. How it is done:
as §3, with “Human plasma samples” for “Human liver microsomes”, “incubated” for “incubated with NADPH”, “by liquid chromatography with tandem mass spectrometry (LC-MS/MS).” for “by LC-MS/MS.”, “equation t1/2(half–time)” for “equation t1/2”

A further data set deals with T2, HDAC6 (Homo sapiens, UniProt Q9UBN7).
T2 sequence (Q9UBN7 1-1215): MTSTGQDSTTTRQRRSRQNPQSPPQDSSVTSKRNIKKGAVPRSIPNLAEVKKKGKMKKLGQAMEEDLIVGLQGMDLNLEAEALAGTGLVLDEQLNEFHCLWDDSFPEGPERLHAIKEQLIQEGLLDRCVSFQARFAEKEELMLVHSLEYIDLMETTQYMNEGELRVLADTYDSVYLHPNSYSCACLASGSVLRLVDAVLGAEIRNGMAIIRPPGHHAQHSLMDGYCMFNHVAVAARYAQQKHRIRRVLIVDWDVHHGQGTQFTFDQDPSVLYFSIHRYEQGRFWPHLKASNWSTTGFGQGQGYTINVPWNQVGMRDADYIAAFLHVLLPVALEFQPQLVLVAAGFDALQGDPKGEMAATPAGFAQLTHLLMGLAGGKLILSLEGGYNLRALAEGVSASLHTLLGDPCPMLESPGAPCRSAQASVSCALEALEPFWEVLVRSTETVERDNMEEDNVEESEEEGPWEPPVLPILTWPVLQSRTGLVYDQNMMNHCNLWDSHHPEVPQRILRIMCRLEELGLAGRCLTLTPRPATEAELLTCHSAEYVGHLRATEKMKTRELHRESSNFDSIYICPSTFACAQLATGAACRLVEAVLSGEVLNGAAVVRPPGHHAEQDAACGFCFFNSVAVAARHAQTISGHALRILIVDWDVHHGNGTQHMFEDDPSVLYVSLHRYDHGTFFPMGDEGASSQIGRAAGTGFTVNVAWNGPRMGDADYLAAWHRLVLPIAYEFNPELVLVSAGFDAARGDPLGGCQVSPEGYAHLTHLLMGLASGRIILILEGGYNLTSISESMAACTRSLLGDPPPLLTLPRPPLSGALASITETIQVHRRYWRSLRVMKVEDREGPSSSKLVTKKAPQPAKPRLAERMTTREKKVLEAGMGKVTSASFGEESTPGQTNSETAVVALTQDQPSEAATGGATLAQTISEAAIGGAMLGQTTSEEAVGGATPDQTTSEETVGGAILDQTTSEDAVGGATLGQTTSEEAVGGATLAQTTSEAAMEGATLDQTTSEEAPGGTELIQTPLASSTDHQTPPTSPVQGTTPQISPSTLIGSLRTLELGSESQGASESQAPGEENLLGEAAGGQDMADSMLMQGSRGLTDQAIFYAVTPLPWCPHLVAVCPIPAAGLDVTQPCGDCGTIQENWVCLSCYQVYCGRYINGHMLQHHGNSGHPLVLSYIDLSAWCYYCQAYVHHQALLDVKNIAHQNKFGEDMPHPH
Briefly: In vitro HDAC inhibition fluorescent assay, HDAC6. Format: biochemical. The following applies: Boc-Lys(acetyl)-AMC substrate. On the procedure:
as §2

Data set [6] deals with tested human cancer cell lines. Briefly: In vitro antiproliferative assay (MTT), all tested tumor cell lines. Format: cell-based. On the procedure:
as §1, with “All cell lines were maintained in Roswell Park Memorial Institute (RPMI) 1640 medium containing 10% fetal bovine serum at 37°C in a 5% CO2 humidified incubator. The” for “The”

The test system of the next data set is MDA-MB-231. Briefly: In vitro antiproliferative assay (MTT), MDA-MB-231. Type of data set: cell-based. Conditions: Homo sapiens, 72 h. How it is done: as §1

Sequence of HDAC2 (Q92769 whole entry, species assumed): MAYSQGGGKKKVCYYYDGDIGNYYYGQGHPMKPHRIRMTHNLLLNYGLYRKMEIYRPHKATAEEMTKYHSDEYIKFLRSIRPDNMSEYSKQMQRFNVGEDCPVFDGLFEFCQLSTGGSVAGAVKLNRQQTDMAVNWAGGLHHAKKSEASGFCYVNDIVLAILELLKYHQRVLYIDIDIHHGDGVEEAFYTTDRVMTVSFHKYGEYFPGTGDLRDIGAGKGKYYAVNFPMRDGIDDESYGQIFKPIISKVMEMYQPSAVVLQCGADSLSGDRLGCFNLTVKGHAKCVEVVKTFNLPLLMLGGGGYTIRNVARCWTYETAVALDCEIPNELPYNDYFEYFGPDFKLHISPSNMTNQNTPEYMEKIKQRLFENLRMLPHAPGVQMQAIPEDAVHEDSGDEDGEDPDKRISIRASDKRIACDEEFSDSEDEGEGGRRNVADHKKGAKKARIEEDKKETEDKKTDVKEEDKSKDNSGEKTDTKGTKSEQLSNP

Turning to `O=C(CCCCCCC(=O)Nc1ccccc1)NO` [Vorinostat, suberoylanilide hydroxamic acid, reference compound], the “t1/2 Human plasma” value in data set [1] was 75^b min. Moreover, in [2], the “level of acetyl-histone H4” value is reported as “dramatically increase” and the “level of acetyl-α-tubulin” value is listed as “dramatically increase”.

One may read the IC50 as the concentration needed to halve the response being measured. In the case of `O=C(CCCCCCC(=O)Nc1nc2ccc(OC(F)(F)F)cc2s1)NO` [Compound 1, N1-Hydroxy-N8-(6-(Trifluoromethoxy)benzo[d]thiazol-2-yl) Octanediamide], the IC50 with HEL worked out at 140 ± 7 nM; at HDAC8, 3300 ± 200 nM; against HDAC2, 330 ± 40 nM; in the data set on MCF-7, 2740 ± 60 nM; in the data set on PC-3 it was 2520 ± 330 nM; in the data set on MOLT-4, 170 ± 7 nM. The IC50 is 290 ± 7 nM in the data set on SK-N-BE(2); 650 ± 20 nM in the data set with KG-1; 120 ± 10 nM in [4]; 12 ± 2 nM against HDAC6; 140 to 2740 nM in [6] (range over MDA-MB-231, MCF-7, PC-3, SK-N-BE(2), KG-1, MOLT-4, HEL, read-out: IC50 values across all tested human cancer cell lines); 770 ± 20 nM in the data set on MDA-MB-231. Besides, the “T/C (relative increment ratio, tumor volume)” value in the data set with MDA-MB-231 xenograft (21 consecutive days, nude mice) was 55%. Besides, the “TGI (tumor growth inhibition, tumor weight)” value in the data set with MDA-MB-231 xenograft (21 consecutive days, nude mice) is given as 59%. Besides, the “mouse body weights (tolerability)” value in the data set with MDA-MB-231 xenograft (21 days, Figure 6) was “high tolerability and low toxicity”. Further, the results for the half-life in data set [3] and in data set [5] were 56 min and more than 120 min, respectively. Besides, the “level of acetyl-histone H4” value in data set [2] is on record as “dramatically increase”. Besides, the “level of acetyl-α-tubulin” value in data set [2] is “dramatically increase”. The “effect on acetyl-α-tubulin compared with vorinostat” value in data set [2] (same concentration of 0.5 μM) was “superior to that of vorinostat”.

What is called inhibition is the relative decrease from the control value, in per cent. Take `Nc1nc2ccc(OC(F)(F)F)cc2s1` [Riluzole, reference compound]: the IC50 with HEL, in the data set with PC-3, in the data set on KG-1 and with MDA-MB-231 was more than 10000 nM each time. The inhibition at 10 µM in data set [6] (at 10 μM, tested tumor cell lines, read-out: growth inhibition) is less than 50%.

The values above are taken from PMC7375020 (Frontiers in Cell and Developmental Biology, 2020).
